Inconclusive results and toxic doses are left out.
Tested on: L1210 leukemia ip in BDF1 mice, survival T/C
Experiment: NCI In Vivo Anticancer Drug Screen. Data for tumor model L1210 Leukemia (intraperitoneal) in B6D2F1 (BDF1) mice
Settings: endpoint: mean survival time, higher = longer survival
Procedure, shortened: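 Transplanted-tumor mice were given test agent; controls received vehicle only. Survival readings from the two groups were divided (treated over control).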

[1] = dose: 100.0 mg/kg/injection, schedule: Q04DX003 (ip), vehicle: Klucel (hydroxypropylcellulose) (HPC)
[2] = dose: 200.0 mg/kg/injection, schedule: Q04DX003 (ip), vehicle: Klucel (hydroxypropylcellulose) (HPC)
[3] = dose: 400.0 mg/kg/injection, schedule: Q04DX003 (ip), vehicle: Klucel (hydroxypropylcellulose) (HPC)
[4] = dose: 50.0 mg/kg/injection, schedule: Q01DX001 (ip), vehicle: saline
[5] = dose: 100.0 mg/kg/injection, schedule: Q01DX001 (ip), vehicle: saline
[6] = dose: 200.0 mg/kg/injection, schedule: Q01DX001 (ip), vehicle: saline

In the case of `COC(=O)C12OCC34C(CC5C(C)=C(O)C(=O)CC5(C)C3C(O)C1O)OC(=O)C(OC(=O)C=C(C)C)C24` (configuration not stated), the T/C (dose: 0.78 mg/kg/injection, schedule: Q04DX002 (ip), vehicle: saline with Tween-80) is reported as 94 % of control, the T/C (dose: 1.56 mg/kg/injection, schedule: Q04DX002 (ip), vehicle: saline with Tween-80) is reported as 102 % of control and the T/C (dose: 3.13 mg/kg/injection, schedule: Q04DX002 (ip), vehicle: saline with Tween-80) is reported as 105 % of control.

`CC(=O)C1C=NCCN=CC(C(C)=O)C(C)=NCCCN=C1C.[Ni]` (configuration not stated) was tested, and the T/C (dose: 50.0 mg/kg/injection, schedule: Q01DX009 (ip), vehicle: Klucel (hydroxypropylcellulose) (HPC)) was 101 % of control, the T/C (dose: 100.0 mg/kg/injection, schedule: Q01DX009 (ip), vehicle: Klucel (hydroxypropylcellulose) (HPC)) was 105 % of control and the T/C [1] was 100 % of control. For the same molecule, the T/C (dose: 200.0 mg/kg/injection, schedule: Q01DX009 (ip), vehicle: Klucel (hydroxypropylcellulose) (HPC)) was 103 % of control, the T/C [2] was 95 % of control and the T/C [3] was 106 % of control.

In the case of `Nc1cccc2c1C(=O)C=CC2=O`, the T/C (dose: 0.78 mg/kg/injection, schedule: Q01DX009 (ip), vehicle: saline) is reported as 103 % of control, the T/C (dose: 1.56 mg/kg/injection, schedule: Q01DX009 (ip), vehicle: saline) is reported as 101 % of control and the T/C (dose: 1.56 mg/kg/injection, schedule: Q04DX003 (ip), vehicle: saline) is reported as 95 % of control. For the same molecule, the T/C (dose: 3.12 mg/kg/injection, schedule: Q01DX009 (ip), vehicle: saline) was 98 % of control, the T/C (dose: 3.12 mg/kg/injection, schedule: Q04DX003 (ip), vehicle: saline) was 103 % of control and the T/C (dose: 4.6 mg/kg/injection, schedule: Q01DX009 (ip), vehicle: saline) was 104 % of control.

For `COc1ccccc1CN1CCCN(Cc2ccccc2OC)C1c1ccccc1`, the T/C [4] was 101 % of control, the T/C [5] was 109 % of control and the T/C [6] was 90 % of control. The T/C (dose: 400.0 mg/kg/injection, schedule: Q01DX001 (ip), vehicle: saline) was 90 % of control.

For `CC(C)CC(=O)CC(Cl)(C(F)(F)F)C(F)(F)F`, the T/C (dose: 100.0 mg/kg/injection, schedule: Q04DX003 (ip), vehicle: gum acacia) was 100 % of control, the T/C (dose: 200.0 mg/kg/injection, schedule: Q04DX003 (ip), vehicle: gum acacia) was 100 % of control and the T/C (dose: 400.0 mg/kg/injection, schedule: Q04DX003 (ip), vehicle: gum acacia) was 90 % of control.

In the case of `Oc1c(CN2CCCC2)cc(Nc2cc(/C=C/c3ccc(Cl)cc3)nc(/C=C\c3ccc(Cl)cc3)n2)cc1CN1CCCC1`, the T/C (dose: 1.0 mg/kg/injection, schedule: Q01DX009 (ip), vehicle: Klucel (hydroxypropylcellulose) (HPC)) is reported as 110 % of control, the T/C (dose: 3.0 mg/kg/injection, schedule: Q01DX009 (ip), vehicle: Klucel (hydroxypropylcellulose) (HPC)) is reported as 98 % of control and the T/C (dose: 6.0 mg/kg/injection, schedule: Q01DX009 (ip), vehicle: Klucel (hydroxypropylcellulose) (HPC)) is reported as 101 % of control. The T/C (dose: 12.0 mg/kg/injection, schedule: Q01DX009 (ip), vehicle: Klucel (hydroxypropylcellulose) (HPC)) was 91 % of control, the T/C (dose: 12.0 mg/kg/injection, schedule: Q04DX003 (ip), vehicle: saline) was 88 % of control and the T/C (dose: 50.0 mg/kg/injection, schedule: Q04DX003 (ip), vehicle: saline) was 88 % of control.

With `COc1cccc2c1C(=O)c1c(O)c3c(c(O)c1C2=O)CC(O)(C(C)=O)CC3OC1OC(COC(C)=O)C(OC(C)=O)C(OC(C)=O)C1NC(=O)C(F)(F)F` (configuration not stated) the T/C (dose: 0.63 mg/kg/injection, schedule: Q01DX009 (ip), vehicle: Klucel (hydroxypropylcellulose) (HPC)) was 98 % of control, the T/C (dose: 1.25 mg/kg/injection, schedule: Q01DX009 (ip), vehicle: Klucel (hydroxypropylcellulose) (HPC)) was 91 % of control and the T/C (dose: 2.5 mg/kg/injection, schedule: Q01DX009 (ip), vehicle: Klucel (hydroxypropylcellulose) (HPC)) was 94 % of control. The T/C (dose: 5.0 mg/kg/injection, schedule: Q01DX009 (ip), vehicle: Klucel (hydroxypropylcellulose) (HPC)) was 97 % of control and the T/C (dose: 10.0 mg/kg/injection, schedule: Q01DX009 (ip), vehicle: Klucel (hydroxypropylcellulose) (HPC)) was 97 % of control.

In the case of `CC(C)(C)NC(=O)C1CCCC(C(=O)NC(C)(C)C)C1` (configuration not stated), the T/C (dose: 200.0 mg/kg/injection, schedule: Q04DX003 (ip), vehicle: saline) is reported as 88 % of control and the T/C (dose: 400.0 mg/kg/injection, schedule: Q04DX003 (ip), vehicle: saline) is reported as 88 % of control.

In the case of `O=C(CC(=O)c1ccccc1)c1ccccc1.O=C(CC(=O)c1ccccc1)c1ccccc1.O=C(CC(=O)c1ccccc1)c1ccccc1.[Al]`, the T/C (dose: 100.0 mg/kg/injection, schedule: Q04DX002 (ip), vehicle: gum acacia) is reported as 100 % of control, the T/C (dose: 200.0 mg/kg/injection, schedule: Q04DX002 (ip), vehicle: gum acacia) is reported as 97 % of control and the T/C (dose: 400.0 mg/kg/injection, schedule: Q04DX002 (ip), vehicle: gum acacia) is reported as 90 % of control.

For `Oc1ccccc1COCc1ccccc1O`, the T/C (dose: 100.0 mg/kg/injection, schedule: Q01DX001 (sc), vehicle: olive oil, sesame oil, peanut oil) was 104 % of control, the T/C (dose: 100.0 mg/kg/injection, schedule: Q04DX003 (sc), vehicle: olive oil, sesame oil, peanut oil) was 102 % of control and the T/C (dose: 200.0 mg/kg/injection, schedule: Q01DX001 (sc), vehicle: olive oil, sesame oil, peanut oil) was 98 % of control. For the same molecule, the T/C (dose: 200.0 mg/kg/injection, schedule: Q04DX003 (sc), vehicle: olive oil, sesame oil, peanut oil) was 108 % of control, the T/C (dose: 400.0 mg/kg/injection, schedule: Q01DX001 (sc), vehicle: olive oil, sesame oil, peanut oil) was 100 % of control and the T/C (dose: 400.0 mg/kg/injection, schedule: Q04DX003 (sc), vehicle: olive oil, sesame oil, peanut oil) was 108 % of control.

`CC1(C)N=C(N)N=C(N)N1c1cccc(OCCCC#N)c1` was tested, and the T/C [5] was 101 % of control.

With `CCNC(=O)N(CC)N=O` the T/C (dose: 6.25 mg/kg/injection, schedule: Q01DX001 (ip), vehicle: saline) was 97 % of control, the T/C (dose: 12.5 mg/kg/injection, schedule: Q01DX001 (ip), vehicle: saline) was 102 % of control and the T/C (dose: 25.0 mg/kg/injection, schedule: Q01DX001 (ip), vehicle: saline) was 100 % of control. For the same molecule, the T/C [4] was 97 % of control, the T/C [5] was 110 % of control and the T/C [6] was 113 % of control. The T/C (dose: 300.0 mg/kg/injection, schedule: Q01DX001 (ip), vehicle: saline) was 124 % of control and the T/C (dose: 500.0 mg/kg/injection, schedule: Q01DX001 (ip), vehicle: saline) was 112 % of control.

For `O=C(Nc1ccc(C2=NCCCN2)cc1)c1ccc(C(=O)Nc2ccc(C3=NCCCN3)cc2)nc1`, the T/C (dose: 1.5 mg/kg/injection, schedule: Q01DX Z (ip), vehicle: water) was 122 % of control, the T/C (dose: 3.0 mg/kg/injection, schedule: Q01DX Z (ip), vehicle: water) was 114 % of control and the T/C (dose: 3.0 mg/kg/injection, schedule: Q01DX Z (oral), vehicle: water) was 97 % of control. For the same molecule, the T/C (dose: 6.0 mg/kg/injection, schedule: Q01DX Z (ip), vehicle: water) was 172 % of control, the T/C (dose: 6.25 mg/kg/injection, schedule: Q01DX Z (oral), vehicle: water) was 95 % of control and the T/C (dose: 7.5 mg/kg/injection, schedule: Q01DX001 (ip), vehicle: water) was 118 % of control. For the same molecule, the T/C (dose: 12.5 mg/kg/injection, schedule: Q01DX Z (oral), vehicle: water) was 89 % of control and the T/C (dose: 25.0 mg/kg/injection, schedule: Q01DX Z (oral), vehicle: water) was 91 % of control.

`c1ccc(P(=NC2CCCCCCC2)(c2ccccc2)c2ccccc2)cc1` was tested, and the T/C (dose: 100.0 mg/kg/injection, schedule: Q01DX001 (ip), vehicle: saline with Tween-80) was 96 % of control, the T/C (dose: 200.0 mg/kg/injection, schedule: Q01DX001 (ip), vehicle: saline with Tween-80) was 98 % of control and the T/C (dose: 400.0 mg/kg/injection, schedule: Q01DX001 (ip), vehicle: saline with Tween-80) was 105 % of control.

With `c1ccc([Si](O[O][Ge]([c]2ccccc2)([c]2ccccc2)[c]2ccccc2)(c2ccccc2)c2ccccc2)cc1` the T/C [1] was 93 % of control, the T/C [2] was 86 % of control and the T/C [3] was 89 % of control.

Reference: PubChem BioAssay AID248 (DTP/NCI, 2004)
